Columns and labels:
[1] = system: NCI-H358(KRAS^G12C mutation) cells; test: Cell assay of antiproliferative activity (Celltiter-Glo, 5 days) against NCI-H358 cells; assay type: cell-based; settings: 5 days incubation
How it was run: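 Cells plated overnight, then given a 10-point compound series (stock dilutions 50 μM to 0.003 μM, 100 nL added per well) and grown 5 days. Luminescence read after 10 min shaking at room temperature. IC50 from curve fitting.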

[2] = Pharmacokinetics test evaluation in rats, plasma concentration by LC/MS/MS; assay type: in vivo; settings: male SD rats, 15 mg/kg by gavage; for T1/2 / Tmax / AUC / Cmax: n = 4, mean; for AUC / Cmax: rat, plasma, po
Procedure: Male SD rats, with a body weight of about 220 g, were given 15 mg/kg solution of the compound of the invention or the control compound by gavage after overnight fasting [10% […] (captisol) and 50 mM sodium citrate (pH 5) as vehicle]. Blood samples were collected at 0.5, 1.0, 2.0, 4.0, 6.0, 8.0, 12.0 and 24 hours after the compound was administrated, and the concentrations of the compound or the control compound in plasma were determined by LC/MS/MS.
The plasma concentration-time curves of Examples 13 and 14 and control compounds were shown in FIG. 1, and the pharmacokinetics parameters were shown in Table 2: […]

[3] = system: A549(KRAS^G12S mutation) cells; test: Cell assay of antiproliferative activity (Celltiter-Glo, 5 days) against A549 cells; assay type: cell-based; settings: Homo sapiens, 120 h, 5 days incubation
Procedure: Cell assay of antiproliferative activity of compounds against NCI-H358(KRAS^G12C mutation) and A549(KRAS^G12S mutation) cells.
40 μl phosphate buffer was added to the outer wells of the 384 microplate, and 40 μl cell suspension to be tested was added to the other wells. Then the microplate was incubated in a carbon dioxide incubator overnight.
The compounds to be tested were gradiently diluted, each compound was performed 10 concentration gradients (diluted from 50 μM to 0.003 μM) and added 100 nL to the corresponding wells in the microplate. After addition, 40 μl of phosphate buffer was added to each well in rows A and P and columns 1 and 24, and then the microplate was incubated in a carbon dioxide incubator for 5 days.
20 μL of Promega Celltiter-Glo reagent was added to each well of the microplate, and then the luminescence signal was stabilized by oscillating at room temperature for 10 min. Then PekinElmer Envision multi-label analyzer was used to read.
Finally, GraphPad Prism software was used to calculate the IC50 value of the compound and the fitting curve was drawn.
Anti-proliferative activity of the compounds of the present invention against NCI-H358(KRAS^G12C mutation) and A549(KRAS^G12S mutation) cells were shown in Table 1.

MIA PaCa-2 tumor cells = settings: MIA PaCa-2 CDX, nude rats
Procedure: Pharmacodynamic Testing Evaluation of Anti-Tumor Activity (MIA PaCa-2 CDX Tumor Model)
100 uL suspension containing 5×10^6 MIA PaCa-2 tumor cells was subcutaneously injected into the right posterior abdomen of nude rats. The health of the rat was monitored daily. Measurements were started when the tumor grew palpable. The tumor volume calculation formula was adopted: 0.5×L×W^2, where L and W represent tumor length and width, respectively. The tumor grew to ˜200 mm^3, the rats were randomly divided into groups. Rats were intragastrically administrated the corresponding dose (7.5 mg/Kg) of the compound's CMC-Na suspension every day, and their general status was monitored at the same time. The tumor was measured 3 times a week, and the weight was measured twice a week.

NCI-H358 tumor cells = test: Pharmacodynamic testing evaluation of anti-tumor activity (H358 CDX tumor model); assay type: in vivo; settings: nude rats
Procedure: Pharmacodynamic Testing Evaluation of Anti-Tumor Activity (11358 CDX Tumor Model)
100 uL suspension containing 5×10^6 NCI-H358 tumor cells was subcutaneously injected into the right posterior back of nude rats. The health of the rat was monitored daily. Measurements were started when the tumor grew palpable.

[4] = 7.5 mg/Kg intragastrically every day, Day 20
[5] = 30 mg/Kg intragastrically every day, Day 20

| IC50 ([1]; Homo sapiens, NCI-H358, 120 h) | T1/2 [2] | Tmax [2] | AUC [2] | Cmax [2] | IC50 [3] | IC50 [1] | bioavailability ([2]; conclusion in words) | metabolic properties in rats compared with the control compound ([2]; higher Cmax and higher plasma exposure AUC) | Compound | % TGI (MIA PaCa-2 tumor cells; [4]) | % Tumor Growth (MIA PaCa-2 tumor cells; [4]) | TV Day 0 (MIA PaCa-2 tumor cells; Day 0 (at grouping), 7.5 mg/Kg intragastrically every day) | TV Day 20 (MIA PaCa-2 tumor cells; Day 20, 7.5 mg/Kg intragastrically every day) | % TGI (NCI-H358 tumor cells; [5]) | % Tumor Growth (NCI-H358 tumor cells; [5]) | TV Day 0 (NCI-H358 tumor cells; Day 0 (at grouping), 30 mg/Kg intragastrically every day) | TV Day 20 (NCI-H358 tumor cells; Day 20, 30 mg/Kg intragastrically every day) |
| --- | --- | --- | --- | --- | --- | --- | --- | --- | --- | --- | --- | --- | --- | --- | --- | --- | --- |
| 90 nM | 1.69 h | 1.25 h | 392 ng·h/mL | 85.1 ng/mL | 6200 nM | – | – | – | C=C(F)C(=O)N1CCN(c2nc(OCCN(C)C3CCC3)nc3c2CCN(c2cccc4ccc(F)c(Cl)c24)C3)CC1CC#N (stereo not drawn) [Example 14, 2-(4-(7-(8-chloro-7-fluoronaphthalen-1-yl)-2-(2-(cyclobutyl(methyl)amino)ethoxy)-5,6,7,8-tetrahydropyrido[3,4-d]pyrimidin-4-yl)-1-(2-fluoroacroloyl)piperazin-2-yl) acetonitrile] | – | – | – | – | – | – | – | – |
| – | – | – | – | – | – | 14 nM | – | – | C=C(F)C(=O)N1CCN(c2nc(OCC3(CN(C)C)CC3)nc3c2CCN(c2cccc4cccc(Cl)c24)C3)C[C@@H]1CC#N [Example 27] | 66.6% | 145.4% | 197 mm^3 | 518 mm^3 | 89.8% | 182% | 209 mm^3 | 471 mm^3 |
| 55 nM | 2.33 h | 4.0 h | 1400 ng·h/mL | 163 ng/mL | 6000 nM | – | excellent bioavailability | better metabolic properties in rats | C=C(F)C(=O)N1CCN(c2nc(OCC3(CN(C)C)CC3)nc3c2CCN(c2cccc4cccc(Cl)c24)C3)CC1CC#N (stereo not drawn) [Example 13] | – | – | – | – | – | – | – | – |
| – | 2.47 h | 4.0 h | 830 ng·h/mL | 123 ng/mL | – | – | – | – | C=C(F)C(=O)N1CCN(c2nc(OC[C@@H]3CCCN3C)nc3c2CCN(c2cccc4cccc(Cl)c24)C3)CC1CC#N (stereo partly drawn) [Control compound, reference compound] | – | – | – | – | – | – | – | – |
